{"source": "PubChem BioAssay AID624460", "about": "(Sanford-Burnham Center for Chemical Genomics, 2012)", "note": "Where “and” joins values, the source holds several entries; their conditions need not be identical. Identical values can stand only once. Calls of active or inactive are those of the source.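 The calls were made as follows: active = protection of heart cells from peroxide damage with half-maximal concentration of 20 µM or lower (some results past the limit were not filed as active); inactive = the rest.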"}
{"tested_on": "HL-1 cardiomyocytes, H2O2 injury, ATPLite viability, 2 h", "test": "protection of HL-1 cardiomyocytes from peroxide, SAR follow-up, HL-1 cells, set 2 (AID 624460)"}
{"smiles": "COc1cc(-c2cc(C(=O)Nc3cccc(C(F)(F)F)c3)c3ccccc3n2)cc(OC)c1OC", "EC50": "> 79 µM (inactive)"}
{"smiles": "COc1ccc(N2C(=O)c3ccccc3N3C(=O)c4c(ccc(OC)c4OC)C23)cc1", "note": "(stereo not drawn)", "EC50": "23.5 µM (inactive)"}
{"smiles": "COc1cccc(CNC(=O)c2cc(-c3ccc(OC)c(OC)c3)nc3ccccc23)c1", "EC50": "10.6 µM (inactive)"}
{"smiles": "COc1ccc2c(c1OC)C(=O)N1c3ccccc3C(=O)N(c3cccc(F)c3)C21", "note": "(stereo not drawn)", "EC50": "34.7 µM (inactive)"}
{"smiles": "COc1ccc2c(c1OC)C(=O)N1c3ccccc3C(=O)N(c3ccccc3)C21", "note": "(stereo not drawn)", "EC50": "> 79 µM (inactive)"}
{"smiles": "COc1cc(-c2cc(C(=O)Nc3cccc(F)c3)c3ccccc3n2)cc(OC)c1OC", "EC50": "16.4 µM (inactive)"}
{"smiles": "COc1ccc2c(c1OC)C(=O)N1c3ccccc3C(=O)N(c3cccc(C)c3)C21", "note": "(stereo not drawn)", "EC50": "60.3 µM (inactive)"}
{"smiles": "COc1cccc(N2C(=O)c3ccccc3N3C(=O)c4ccccc4C23)c1", "note": "(stereo not drawn)", "EC50": "> 79 µM (inactive)"}
{"smiles": "COc1ccc(-c2cc(C(=O)Nc3cccc(C(C)=O)c3)c3ccccc3n2)cc1", "EC50": "> 79 µM (inactive)"}
{"smiles": "COc1ccc2c(c1OC)C(=O)N1c3ccccc3C(=O)N(c3cccc(Br)c3)C21", "note": "(stereo not drawn)", "EC50": "3.29 µM and > 79 µM (inactive)"}
{"smiles": "CCOC(=O)c1cccc(NC(=O)c2cc(-c3cc(OC)c(OC)c(OC)c3)nc3ccccc23)c1", "EC50": "3.15 µM"}
{"smiles": "COc1cc(-c2cc(C(=O)Nc3cccc(C)c3)c3ccccc3n2)cc(OC)c1OC", "EC50": "> 79 µM (inactive)"}
{"smiles": "COc1ccc2c(c1OC)C(=O)N1c3ccccc3C(=O)N(c3ccc(C)cc3)C21", "note": "(stereo not drawn)", "EC50": "> 79 µM (inactive)"}
{"smiles": "COc1ccc2c(c1OC)C(=O)N1c3ccccc3C(=O)N(Cc3cccc(Cl)c3)C21", "note": "(stereo not drawn)", "EC50": "> 79 µM (inactive)"}
{"smiles": "COc1ccc2c(c1OC)C(=O)N1c3ccccc3C(=O)N(c3ccc(C(C)(C)C)cc3)C21", "note": "(stereo not drawn)", "EC50": "> 79 µM (inactive)"}
{"smiles": "O=C1c2ccccc2N2C(=O)c3ccccc3C2N1c1ccccc1", "note": "(stereo not drawn)", "EC50": "> 79 µM (inactive)"}
{"smiles": "COc1ccc2c(c1OC)C(=O)N1c3ccccc3C(=O)N(c3ccc(Br)cc3)C21", "note": "(stereo not drawn)", "EC50": "> 79 µM (inactive)"}
{"smiles": "CCN(CC(=O)Nc1ccccc1)C(=O)c1cc(-c2cccs2)nn1-c1ccccc1", "EC50": "> 79 µM (inactive)"}
{"smiles": "CC(=O)c1cccc(NC(=O)c2cc(-c3ccccc3)nc3ccccc23)c1", "EC50": "> 79 µM (inactive)"}
{"smiles": "COc1ccc(-c2cc(C(=O)Nc3cccc(C(C)=O)c3)c3ccccc3n2)cc1OC", "EC50": "> 79 µM (inactive)"}
{"smiles": "COc1cc(-c2cc(C(=O)Nc3cccc(C(C)=O)c3)c3cc(Cl)ccc3n2)cc(OC)c1OC", "EC50": "3.26 µM"}
{"smiles": "CCN(CC(=O)Nc1ccc(OC)cc1)C(=O)c1cc(-c2cccs2)nn1-c1ccccc1", "EC50": "70.2 µM (inactive) and > 79 µM (inactive)"}
{"smiles": "COc1cc(-c2cc(C(=O)Nc3cccc(C(C)=O)c3)c3ccccc3n2)cc(OC)c1OC", "EC50": "1.47 µM and 8.54 µM"}
{"smiles": "CCN(CC(=O)Nc1ccc(OC)cc1)C(=O)c1cc(-c2cc(OC)c(OC)c(OC)c2)nc2ccccc12", "EC50": "9.39 µM"}
{"smiles": "COc1cc(-c2cc(C(=O)Nc3ccccc3)c3ccccc3n2)cc(OC)c1OC", "EC50": "> 79 µM (inactive)"}
{"smiles": "COc1cccc(NC(=O)c2cc(-c3cc(OC)c(OC)c(OC)c3)nc3ccccc23)c1", "EC50": "9.39 µM"}
{"smiles": "COc1cc(-c2cc(C(=O)Nc3ccc(C(C)=O)cc3)c3ccccc3n2)cc(OC)c1OC", "EC50": "9.93 µM"}
{"smiles": "COc1ccc2c(c1OC)C(=O)N1c3ccccc3C(=O)N(c3cccc(C(F)(F)F)c3)C21", "note": "(stereo not drawn)", "EC50": "> 79 µM (inactive)"}
{"smiles": "COc1ccc(NC(=O)c2cc(-c3cc(OC)c(OC)c(OC)c3)nc3ccccc23)cc1", "EC50": "10.2 µM (inactive)"}
{"smiles": "COc1ccc2c(c1OC)C(=O)N1c3ccccc3C(=O)N(c3cccc(Cl)c3)C21", "note": "(stereo not drawn)", "EC50": "> 79 µM (inactive)"}
{"smiles": "COc1cccc(CNC(=O)c2cc(-c3cc(OC)c(OC)c(OC)c3)nc3ccccc23)c1", "EC50": "10.7 µM (inactive)"}
{"smiles": "CCN(CC(=O)Nc1ccc(C)cc1)C(=O)c1cc(-c2cccs2)nn1-c1ccccc1", "EC50": "> 79 µM (inactive)"}
{"smiles": "COc1cccc(N2C(=O)c3ccccc3N3C(=O)c4c(ccc(OC)c4OC)C23)c1", "note": "(stereo not drawn)", "EC50": "> 79 µM (inactive)"}
{"smiles": "COc1cc(-c2cc(C(=O)Nc3cccc(Cl)c3)c3ccccc3n2)cc(OC)c1OC", "EC50": "> 79 µM (inactive)"}
{"smiles": "COc1ccc2c(c1OC)C(=O)N1c3ccccc3C(=O)N(Cc3ccccc3Cl)C21", "note": "(stereo not drawn)", "EC50": "> 79 µM (inactive)"}
{"smiles": "COc1cccc(-c2cc(C(=O)Nc3cccc(C(C)=O)c3)c3ccccc3n2)c1", "EC50": "> 79 µM (inactive)"}
{"smiles": "CCN(CC(=O)Nc1ccc(F)cc1)C(=O)c1cc(-c2cccs2)nn1-c1ccccc1", "EC50": "> 79 µM (inactive)"}
{"smiles": "O=C1c2ccccc2N2C(=O)c3ccccc3C2N1c1cccc(Br)c1", "note": "(stereo not drawn)", "EC50": "> 79 µM (inactive)"}
